Assay results taken from patent publication US20160145247A1, “Aminomethyl-Biaryl Derivatives Complement Factor D inhibitors and uses thereof” (NOVARTIS AG, priority 2013, published 2016).

Experiments:
factor D [1] = biological target: T1, factor D (Homo sapiens, UniProt P00746); test: Human Complement Factor D ELISA Assay; format: biochemical; settings: tested using the assay of Biological Example 1 (ELISA, Ba product quantified); read-out: activity against factor D
T1 construct: made in house; host or cells: E. coli
T1 sequence (P00746 26-253): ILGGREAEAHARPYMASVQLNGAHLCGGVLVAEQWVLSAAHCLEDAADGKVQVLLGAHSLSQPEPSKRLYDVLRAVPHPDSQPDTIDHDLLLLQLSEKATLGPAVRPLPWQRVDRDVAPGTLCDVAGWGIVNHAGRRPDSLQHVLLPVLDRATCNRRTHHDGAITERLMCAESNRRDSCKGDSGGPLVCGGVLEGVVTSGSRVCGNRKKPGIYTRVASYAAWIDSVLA

factor D [2] = biological target: T1, factor D; test: factor D inhibition assay of Biological Example 2; format: biochemical

IC50 (factor D [1]) | IC50 (factor D [2]) | SMILES
694 nM |  | CC[N+]1=C(/C=C/C=C/C=C2/N(CCCCCC(=O)NC[C@@]3(F)C[C@@H](C(=O)NCc4cccc(Cl)c4F)N(C(=O)Nc4cn(C(N)=O)c5ccccc45)C3)c3ccc(S(=O)(=O)O)cc3C2(C)C)C(C)(C)c2cc(S(=O)(=O)O)ccc21 [Biological Example 2.2, 2-((1E,3E,5E)-5-(1-(6-((((3S,5S)-1-((1-carbamoyl-1H-indol-3-yl)carbamoyl)-5-((3-chloro-2-fluorobenzyl)carbamoyl)-3-fluoropyrrolidin-3-yl)methyl)amino)-6-oxohexyl)-3,3-dimethyl-5-sulfoindolin-2-ylidene)penta-1,3-dien-1-yl)-1-ethyl-3,3-dimethyl-5-sulfo-3H-indol-1-ium]
 | 10 nM | COCc1cc(COc2ccccc2CC(=O)O)cc(-c2cccc(C(N)CF)c2F)c1 (racemic) [Example 205-B, (±)-2-(2-((3′-(1-Amino-2-fluoroethyl)-2′-fluoro-5-(methoxymethyl)-[1,1′-biphenyl]-3-yl)methoxy)phenyl)acetic acid]
 | 2 nM | NCc1cccc(-c2cc(CCC3CC3)cc(COc3ccccc3CC(=O)O)c2)c1 [Example 107-C, 2-(2-((3′-(Aminomethyl)-5-(2-cyclopropylethyl)-[1,1′-biphenyl]-3-yl)methoxy)phenyl)acetic acid]
 | 4 nM | C[C@@H](N)c1cccc(-c2cc(COc3ccccc3CC(=O)O)cc(NCC3CC3)c2)c1F [Example 150-C, (R)-2-(2-((3′-(1-Aminoethyl)-5-((cyclopropylmethyl)amino)-2′-fluoro-[1,1′-biphenyl]-3-yl)methoxy)phenyl)acetic acid]
 | 9 nM | C[C@@H](N)c1cccc(-c2cc(COc3ccccc3CC(=O)O)c3cn[nH]c3c2)c1F [Example 211-C]
 | 22 nM | CCC[C@@H](N)c1cccc(-c2cc(COc3ccccc3CC(=O)O)cc(-c3ccccc3)c2)c1F [Example 200-B, (R)-2-(2-((3-(1-aminobutyl)-2-fluoro-[1,1′:3′,1″-terphenyl]-5′-yl)methoxy)phenyl)acetic acid]
 | 39 nM | C[C@@H](N)c1cccc(-c2cc(COc3ccccc3CC(=O)O)cc(OCC3CCCN3)c2)c1 (stereo partly drawn) [Example 267, 2-(2-((3′-((R)-1-aminoethyl)-5-(pyrrolidin-2-ylmethoxy)-[1,1′-biphenyl]-3-yl)methoxy)phenyl)acetic acid]
 | 436 nM | COC[C@@H](N)c1cccc(-c2ccnc(COc3ccccc3CC(=O)O)c2)c1 [Example 184, (S)-2-(2-((4-(3-(1-amino-2-methoxyethyl)phenyl)pyridin-2-yl)methoxy)phenyl)acetic acid]
 | 18 nM | N=C(N)c1cccc(-c2cccc(COc3ccccc3CC(=O)O)c2)c1 [Example 192-B, 2-(2-((3′-Carbamimidoyl-[1,1′-biphenyl]-3-yl)methoxy)phenyl)acetic acid]
 | 15 nM | NCc1cccc(-c2cc(CCO)cc(COc3ccccc3CC(=O)O)c2)c1 [Example 105-C, 2-(2-((3′-(Aminomethyl)-5-(2-hydroxyethyl)-[1,1′-biphenyl]-3-yl)methoxy)phenyl)acetic acid]
 | 1210 nM | CC[C@@H](N)c1cccc(-c2cccc(COc3ccccc3CC(=O)O)c2)c1 [Example 190-C]
 | 52500 nM | Cc1c(COc2ccccc2CC(=O)O)cccc1-c1cccc([C@@H](C)N)c1 [Example 116-N]
 | 41 nM | N[C@H](CO)c1cc(F)cc(-c2cccc(COc3ccccc3CC(=O)O)c2)c1 [Example 190-A]
 | 1580 nM | C[C@H](N)c1cccc(-c2cc(COc3ccccc3CC(=O)O)cc(S(C)(=O)=O)c2)c1F [Example 252, (S)-2-(2-((3′-(1-aminoethyl)-2′-fluoro-5-(methylsulfonyl)-[1,1′-biphenyl]-3-yl)methoxy)phenyl)acetic acid]
 | 2270 nM | NCc1cc(F)cc(-c2cccc(S(=O)(=O)Nc3ccccc3CC(=O)O)c2)c1 [Example 49, 2-(2-(3′-(aminomethyl)-5′-fluoro-[1,1′-biphenyl]-3-ylsulfonamido)phenyl)acetic acid]
 | 12 nM | Cc1cc(COc2ccccc2CC(=O)O)cc(-c2cccc([C@@H](C)N)c2F)c1 [Example 210-C, (R)-2-(2-((3′-(1-aminoethyl)-2′-fluoro-5-methyl-[1,1′-biphenyl]-3-yl)methoxy)phenyl)acetic acid]
 | 2540 nM | CNC(CO)c1cccc(-c2cccc(COc3ccccc3CC(=O)O)c2)c1 (racemic) [Example 171, (±)-2-(2-((3′-(2-Hydroxy-1-(methylamino)ethyl)-[1,1′-biphenyl]-3-yl)methoxy)phenyl)acetic acid]
